# Measurements as given in paper PMC8904767, “Engineering an acetoacetyl-CoA reductase from Cupriavidus necator toward NADH preference under physiological conditions” (Scientific Reports, 2022).
# Key:
# Chimera 5 [1] = molecular target: T1, Chimera 5 (Cupriavidus necator, UniProt P14697, G33A/N37E/S38F/R40K/R41P/E46K, form not given); assay: initial rates and reaction progress curves, global fit; assay type: biochemical; conditions: MOPS 50 mM, NaCl 5 mM, MgCl2 5 mM, pH 7.0, 30 °C
# T1 construct: gene phaB; AAR^Cn1 with segment G33-E46 replaced by A33-K46 of AAR^CAp (residues 36 and 44 conserved); E. coli BL21(DE3), IMAC
# T1 sequence (P14697 whole entry G33A/N37E/S38F/R40K/R41P/E46K, form open): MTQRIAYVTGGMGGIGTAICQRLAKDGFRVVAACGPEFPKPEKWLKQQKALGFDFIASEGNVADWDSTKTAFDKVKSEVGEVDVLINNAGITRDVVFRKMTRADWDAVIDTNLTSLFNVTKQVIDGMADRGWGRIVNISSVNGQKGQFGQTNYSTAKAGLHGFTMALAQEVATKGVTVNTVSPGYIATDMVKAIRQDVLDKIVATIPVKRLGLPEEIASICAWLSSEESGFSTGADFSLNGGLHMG
# Source text: initial rates and reaction progress curves, global fit on Chimera 5
# Chimera 5 [2] = molecular target: T1, Chimera 5; assay: reaction progress curve analysis, absorbance […] nm; assay type: biochemical; conditions: AcAcCoA 2 mM; MOPS 50 mM, NaCl 5 mM, MgCl2 5 mM, pH 7.0, 30 °C; apparent kcat; read-out: Chimera5
# [3] = molecular target: T2, Chimera 1 backbone (Chimera 2, Chimera 3, Chimera 4) (Cupriavidus necator, UniProt P14697, N37E/S38F/R40K/R41G, form not given); assay: as above; assay type: biochemical; conditions: AcAcCoA 2 mM, MOPS 50 mM, NaCl 5 mM, MgCl2 5 mM, pH 7.0, 30 °C, apparent kcat, read-out: Chimera2
# T2 construct: gene phaB; AAR^Cn1 with N37-R41 replaced by E37-P41 of AAR^CAp (E37, F38, K40, P41 told in text); E. coli BL21(DE3), IMAC
# T2 sequence (P14697 whole entry N37E/S38F/R40K/R41G, form open): as the sequence (P14697 whole entry G33A/N37E/S38F/R40K/R41P/E46K, form open) above, with A33G, P41G, K46E counted along it
# [4] = molecular target: T3, Chimera 1 backbone (Chimera 2, Chimera 3, Chimera 4) (Cupriavidus necator, UniProt P14697, N37E/S38E/R40Q/R41P, form not given); assay: as above; assay type: biochemical; conditions: AcAcCoA 2 mM, MOPS 50 mM, NaCl 5 mM, MgCl2 5 mM, pH 7.0, 30 °C, apparent kcat, read-out: Chimera4
# T3 construct: gene phaB; AAR^Cn1 with N37-R41 replaced by E37-P41 of AAR^CAp (E37, F38, K40, P41 told in text); E. coli BL21(DE3), IMAC
# T3 sequence (P14697 whole entry N37E/S38E/R40Q/R41P, form open): as the sequence (P14697 whole entry G33A/N37E/S38F/R40K/R41P/E46K, form open) above, with A33G, F38E, K40Q, K46E counted along it
# [5] = molecular target: T4, Chimera 1 backbone (Chimera 2, Chimera 3, Chimera 4) (Cupriavidus necator, UniProt P14697, N37E/S38A/R40K/R41P, form not given); assay: as above; assay type: biochemical; conditions: AcAcCoA 2 mM, MOPS 50 mM, NaCl 5 mM, MgCl2 5 mM, pH 7.0, 30 °C, apparent kcat, read-out: Chimera3
# T4 construct: gene phaB; AAR^Cn1 with N37-R41 replaced by E37-P41 of AAR^CAp (E37, F38, K40, P41 told in text); E. coli BL21(DE3), IMAC
# T4 sequence (P14697 whole entry N37E/S38A/R40K/R41P, form open): as the sequence (P14697 whole entry G33A/N37E/S38F/R40K/R41P/E46K, form open) above, with A33G, F38A, K46E counted along it
# purified protein [6] = substrate: NC(=O)C1=CN([C@@H]2O[C@H](COP(=O)(O)OP(=O)(O)OC[C@H]3O[C@@H](n4cnc5c(N)ncnc54)[C@H](OP(=O)(O)O)[C@@H]3O)[C@@H](O)[C@H]2O)C=CC1; assay: purified protein; assay type: biochemical, Cupriavidus necator; conditions: AcAcCoA 2 mM, MOPS 50 mM, NaCl 5 mM, MgCl2 5 mM, pH 7.0, 30 °C, apparent kcat, varied: cofactor
# purified protein [7] = substrate: NC(=O)C1=CN([C@@H]2O[C@H](COP(=O)(O)OP(=O)(O)OC[C@H]3O[C@@H](n4cnc5c(N)ncnc54)[C@H](O)[C@@H]3O)[C@@H](O)[C@H]2O)C=CC1; assay: purified protein; assay type: biochemical, Cupriavidus necator; conditions: AcAcCoA 2 mM, MOPS 50 mM, NaCl 5 mM, MgCl2 5 mM, pH 7.0, 30 °C, apparent kcat, varied: cofactor
Molecule,Km (Chimera 5 [2]),Km [3],Km [4],Km [5],other results
CC(=O)CC(=O)SCCNC(=O)CCNC(=O)[C@H](O)C(C)(C)COP(=O)(O)OP(=O)(O)OC[C@H]1O[C@@H](n2cnc3c(N)ncnc32)[C@H](O)[C@@H]1OP(=O)(O)O [AcAcCoA],,,,,"Km (Chimera 5 [1]; NADH 1 mM, substrate inhibition model with KiS = KM): 50 µM; NADPH (Chimera 5 [1]; substrate inhibition, second site, NADPH 1 mM): 324 [195–465] µM"
NC(=O)C1=CN([C@@H]2O[C@H](COP(=O)(O)OP(=O)(O)OC[C@H]3O[C@@H](n4cnc5c(N)ncnc54)[C@H](O)[C@@H]3O)[C@@H](O)[C@H]2O)C=CC1 [NADH],43 µM,140 µM,618 µM,886 µM,
NC(=O)C1=CN([C@@H]2O[C@H](COP(=O)(O)OP(=O)(O)OC[C@H]3O[C@@H](n4cnc5c(N)ncnc54)[C@H](OP(=O)(O)O)[C@@H]3O)[C@@H](O)[C@H]2O)C=CC1 [NADPH],2790 µM,1120 µM,120 µM,1750 µM,
"AAR^Cn1 (acetoacetyl-CoA reductase encoded by phaB1) (Cupriavidus necator H16) (protein, recombinant, expressed in E. coli BL21(DE3), purified by IMAC) MTQRIAYVTGGMGGIGTAICQRLAKDGFRVVAGCGPNSPRREKWLEQQKALGFDFIASEGNVADWDSTKTAFDKVKSEVGEVDVLINNAGITRDVVFRKMTRADWDAVIDTNLTSLFNVTKQVIDGMADRGWGRIVNISSVNGQKGQFGQTNYSTAKAGLHGFTMALAQEVATKGVTVNTVSPGYIATDMVKAIRQDVLDKIVATIPVKRLGLPEEIASICAWLSSEESGFSTGADFSLNGGLHMG",,,,,Km (purified protein [6]): 44 [40–49] µM; kcat (purified protein [6]): 5.2 s⁻¹; kcat/Km (purified protein [6]): 118000 M⁻¹ s⁻¹; Km (purified protein [7]): 819 [688–975] µM; kcat (purified protein [7]): 10.3 s⁻¹; kcat/Km (purified protein [7]): 13000 M⁻¹ s⁻¹
